Experimental data reported in patent publication US9358023B2, “Systems and methods for opening of a tissue barrier” (priority 2009, dated 2016).
“Also recorded” adds a separate entry of the source.

What was measured:
[1] = test system: blood-brain barrier; assay: FUS and microbubble BBB opening: fluorescent dextran delivery to the sonicated hippocampus, quantified as NOD;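 note: male wild-type C57BL/6 mice, left hippocampus sonicated with untargeted right hippocampus as control, read by fluorescence microscopy of frozen horizontal brain sections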
[2] = test system: blood-brain barrier; details: mouse
[3] = PL 3.5 cycles, PRF 6.25 kHz, BRF 0.1 Hz, BL 1000 pulses, pressure 0.51
[4] = PL 3.5 cycles, PRF 6.25 kHz, BRF 1 Hz, BL 1000 pulses, pressure 0.51
[5] = PL 3.5 cycles, PRF 6.25 kHz, BRF 2 Hz, BL 1000 pulses, pressure 0.51
[6] = PL 3.5 cycles, PRF 6.25 kHz, BRF 5 Hz, BL 1000 pulses, pressure 0.51
[7] = PL 3.5 cycles, PRF 6.25 kHz, pulses emitted continuously without bursts, pressure 0.51
[8] = PL 3.5 cycles, PRF 25 kHz, BRF 0.1 Hz, BL 1000 pulses, pressure 0.51
[9] = PL 3.5 cycles, PRF 25 kHz, BRF 1 Hz, BL 1000 pulses, pressure 0.51
[10] = PL 3.5 cycles, PRF 25 kHz, BRF 2 Hz, BL 1000 pulses, pressure 0.51
[11] = PL 3.5 cycles, PRF 25 kHz, BRF 5 Hz, BL 1000 pulses, pressure 0.51
[12] = PL 3.5 cycles, PRF 25 kHz, BRF 10 Hz, BL 1000 pulses, pressure 0.51
[13] = PL 3.5 cycles, PRF 25 kHz, pulses emitted continuously without bursts, pressure 0.51
[14] = PL 3.5 cycles, PRF 100 kHz, BRF 0.1 Hz, BL 1000 pulses, pressure 0.51
[15] = PL 3.5 cycles, PRF 100 kHz, BRF 1 Hz, BL 1000 pulses, pressure 0.51
[16] = PL 3.5 cycles, PRF 100 kHz, BRF 2 Hz, BL 1000 pulses, pressure 0.51
[17] = PL 3.5 cycles, PRF 100 kHz, BRF 5 Hz, BL 1 pulse, pressure 0.51
[18] = PL 3.5 cycles, PRF 100 kHz, BRF 5 Hz, BL 5 pulses, pressure 0.51
[19] = PL 3.5 cycles, PRF 100 kHz, BRF 5 Hz, BL 10 pulses, pressure 0.51
[20] = PL 3.5 cycles, PRF 100 kHz, BRF 5 Hz, BL 50 pulses, pressure 0.51
[21] = PL 3.5 cycles, PRF 100 kHz, BRF 5 Hz, BL 100 pulses, pressure 0.51
[22] = PL 3.5 cycles, PRF 100 kHz, BRF 5 Hz, BL 500 pulses, pressure 0.51
[23] = PL 3.5 cycles, PRF 100 kHz, BRF 5 Hz, BL 1000 pulses, pressure 0.13
[24] = PL 3.5 cycles, PRF 100 kHz, BRF 5 Hz, BL 1000 pulses, pressure 0.25
[25] = PL 3.5 cycles, PRF 100 kHz, BRF 5 Hz, BL 1000 pulses, pressure 0.37
[26] = PL 3.5 cycles, PRF 100 kHz, BRF 5 Hz, BL 1000 pulses, pressure 0.51
[27] = PL 3.5 cycles, PRF 100 kHz, BRF 10 Hz, BL 1000 pulses, pressure 0.51
[28] = PL 3.5 cycles, PRF 100 kHz, pulses emitted continuously without bursts, pressure 0.51
[29] = microbubble 0.01 μL/g, PRF 10 Hz, PL 20 ms, 0.46 MPa, 11-minute sonication
[30] = microbubble 0.05 μL/g injected over 180 seconds, PRF 5 Hz, PL 0.2 ms, 0.46 MPa
[31] = microbubble 0.05 μL/g, PRF 0.1 Hz, PL 20 ms, 0.46 MPa, 11-minute sonication
[32] = microbubble 0.05 μL/g, PRF 1 Hz, PL 20 ms, 0.46 MPa, 11-minute sonication
[33] = microbubble 0.05 μL/g, PRF 5 Hz, PL 0.2 ms, 0.46 MPa, 11-minute sonication
[34] = microbubble 0.05 μL/g, PRF 5 Hz, PL 20 ms, 0.46 MPa, 11-minute sonication
[35] = microbubble 0.05 μL/g, PRF 10 Hz, PL 0.03 ms, 0.46 MPa, 11-minute sonication
[36] = microbubble 0.05 μL/g, PRF 10 Hz, PL 0.1 ms, 0.46 MPa, 11-minute sonication
[37] = microbubble 0.05 μL/g, PRF 10 Hz, PL 0.2 ms, 0.46 MPa, 11-minute sonication
[38] = microbubble 0.05 μL/g, PRF 10 Hz, PL 1 ms, 0.46 MPa, 11-minute sonication
[39] = microbubble 0.05 μL/g, PRF 10 Hz, PL 2 ms, 0.46 MPa, 11-minute sonication
[40] = microbubble 0.05 μL/g, PRF 10 Hz, PL 10 ms, 0.46 MPa, 11-minute sonication
[41] = microbubble 0.05 μL/g, PRF 10 Hz, PL 20 ms, 0.46 MPa, 11-minute sonication
[42] = microbubble 0.05 μL/g, PRF 10 Hz, PL 20 ms, 0.46 MPa, microbubble and dextran 1 minute before a 30-second sonication
[43] = microbubble 0.05 μL/g, PRF 10 Hz, PL 30 ms, 0.46 MPa, 11-minute sonication
[44] = microbubble 0.05 μL/g, PRF 25 Hz, PL 20 ms, 0.46 MPa, 11-minute sonication
[45] = microbubble 0.25 μL/g, PRF 10 Hz, PL 20 ms, 0.46 MPa, 11-minute sonication
[46] = sham mouse, no ultrasound applied, microbubble 0.05 μL/g

Molecule: dextran
- increase in NOD (significance) ([1]; 100-kHz PRF, 5-Hz BRF, 0.51 MPa, 1000 pulse BL): Significant increases
- Incidence of NOD increase [1, 3]: 2/3
- NOD (mean ± std. dev.) [1, 3]: 0.68 ± 0.47 × 1e9
- Incidence of NOD increase [1, 4]: 2/3
- NOD (mean ± std. dev.) [1, 4]: 0.78 ± 0.85 × 1e9
- Incidence of NOD increase [1, 5]: 1/3
- NOD (mean ± std. dev.) [1, 5]: −0.16 ± 0.67 × 1e9
- Incidence of NOD increase [1, 6]: 2/3
- NOD (mean ± std. dev.) [1, 6]: 0.56 ± 0.95 × 1e9
- Incidence of NOD increase [1, 7]: 1/3
- NOD (mean ± std. dev.) [1, 7]: −0.11 ± 0.35 × 1e9
- Incidence of NOD increase [1, 8]: 2/3
- NOD (mean ± std. dev.) [1, 8]: 0.35 ± 0.10 × 1e9
- Incidence of NOD increase [1, 9]: 3/3
- NOD (mean ± std. dev.) [1, 9]: 1.92 ± 0.10 × 1e9
- Incidence of NOD increase [1, 10]: 3/3
- NOD (mean ± std. dev.) [1, 10]: 3.34 ± 1.35 × 1e9
- Incidence of NOD increase [1, 11]: 3/3
- NOD (mean ± std. dev.) [1, 11]: 1.48 ± 0.77 × 1e9
- Incidence of NOD increase [1, 12]: 2/3
- NOD (mean ± std. dev.) [1, 12]: 1.31 ± 1.35 × 1e9
- Incidence of NOD increase [1, 13]: 1/3
- NOD (mean ± std. dev.) [1, 13]: 0.30 ± 0.20 × 1e9
- Incidence of NOD increase [1, 14]: 2/3
- NOD (mean ± std. dev.) [1, 14]: 0.99 ± 0.85 × 1e9
- Incidence of NOD increase [1, 15]: 3/3
- NOD (mean ± std. dev.) [1, 15]: 1.45 ± 0.73 × 1e9
- Incidence of NOD increase [1, 16]: 3/3
- NOD (mean ± std. dev.) [1, 16]: 3.08 ± 2.76 × 1e9
- Incidence of NOD increase [1, 17]: 0/3
- NOD (mean ± std. dev.) [1, 17]: 0.01 ± 0.11 × 1e9
- Incidence of NOD increase [1, 18]: 1/3
- NOD (mean ± std. dev.) [1, 18]: 0.13 ± 0.17 × 1e9
- Incidence of NOD increase [1, 19]: 3/3
- NOD (mean ± std. dev.) [1, 19]: 2.14 ± 1.33 × 1e9
- Incidence of NOD increase [1, 20]: 3/3
- NOD (mean ± std. dev.) [1, 20]: 2.20 ± 0.54 × 1e9
- Incidence of NOD increase [1, 21]: 3/3
- NOD (mean ± std. dev.) [1, 21]: 3.60 ± 0.95 × 1e9
- Incidence of NOD increase [1, 22]: 3/3
- NOD (mean ± std. dev.) [1, 22]: 3.30 ± 0.58 × 1e9
- Incidence of NOD increase [1, 23]: 1/3
- NOD (mean ± std. dev.) [1, 23]: 0.10 ± 0.21 × 1e9
- Incidence of NOD increase [1, 24]: 1/3
- NOD (mean ± std. dev.) [1, 24]: 0.10 ± 0.16 × 1e9
- Incidence of NOD increase [1, 25]: 2/3
- NOD (mean ± std. dev.) [1, 25]: 0.60 ± 0.48 × 1e9
- Incidence of NOD increase [1, 26]: 3/3
- NOD (mean ± std. dev.) [1, 26]: 6.14 ± 1.45 × 1e9
- Incidence of NOD increase [1, 27]: 3/3
- NOD (mean ± std. dev.) [1, 27]: 2.01 ± 1.44 × 1e9
- Incidence of NOD increase [1, 28]: 1/3
- NOD (mean ± std. dev.) [1, 28]: 0.21 ± 0.32 × 1e9
- spatial distribution of delivered dextran fluorescence in the target ROI ([1]; bursts of 3.5-cycle pulses, 100-kHz PRF, 5-Hz BRF, 0.51 MPa, 1000 pulse BL, listed as 3-kDa dextran): distributed most homogeneously and across a larger area than the other two molecular weights; also recorded: homogeneous and diffuse spatial distribution
- NOD (mean ± std. dev.) [1, 29]: 2.89 ± 1.99 × 1e9
- Number of mice with delivered dextran [1, 29]: 5/5
- NOD (mean ± std. dev.) [1, 30]: 1.58 ± 1.37 × 1e9
- Number of mice with delivered dextran [1, 30]: 5/5
- NOD (mean ± std. dev.) [1, 31]: −0.17 ± 0.17 × 1e9
- Number of mice with delivered dextran [1, 31]: 0/5
- NOD (mean ± std. dev.) [1, 32]: 3.77 ± 4.52 × 1e9
- Number of mice with delivered dextran [1, 32]: 3/5
- NOD (mean ± std. dev.) [1, 33]: 2.02 ± 1.38 × 1e9
- Number of mice with delivered dextran [1, 33]: 5/5
- NOD (mean ± std. dev.) [1, 34]: 4.21 ± 2.05 × 1e9
- Number of mice with delivered dextran [1, 34]: 5/5
- NOD (mean ± std. dev.) [1, 35]: 0.78 ± 1.41 × 1e9
- Number of mice with delivered dextran [1, 35]: 2/5
- NOD (mean ± std. dev.) [1, 36]: 1.20 ± 1.05 × 1e9
- Number of mice with delivered dextran [1, 36]: 5/6
- NOD (mean ± std. dev.) [1, 37]: 0.98 ± 0.67 × 1e9
- Number of mice with delivered dextran [1, 37]: 5/5
- NOD (mean ± std. dev.) [1, 38]: 4.07 ± 3.71 × 1e9
- Number of mice with delivered dextran [1, 38]: 5/5
- NOD (mean ± std. dev.) [1, 39]: 1.84 ± 1.44 × 1e9
- Number of mice with delivered dextran [1, 39]: 4/5
- NOD (mean ± std. dev.) [1, 40]: 4.76 ± 2.03 × 1e9
- Number of mice with delivered dextran [1, 40]: 5/5
- NOD (mean ± std. dev.) [1, 41]: 4.45 ± 2.08 × 1e9
- Number of mice with delivered dextran [1, 41]: 5/5
- NOD (mean ± std. dev.) [1, 42]: 4.91 ± 0.94 × 1e9
- Number of mice with delivered dextran [1, 42]: 5/5
- NOD (mean ± std. dev.) [1, 43]: 5.77 ± 1.73 × 1e9
- Number of mice with delivered dextran [1, 43]: 5/5
- NOD (mean ± std. dev.) [1, 44]: 4.58 ± 1.40 × 1e9
- Number of mice with delivered dextran [1, 44]: 5/5
- NOD (mean ± std. dev.) [1, 45]: 5.34 ± 2.12 × 1e9
- Number of mice with delivered dextran [1, 45]: 5/5
- NOD (mean ± std. dev.) [1, 46]: 0.01 ± 0.23 × 1e9
- Number of mice with delivered dextran [1, 46]: 0/5

B1: GDNF: glia-derived neurotrophic factor (protein, UniProt P39905 78-211, looked up)
Glial cell line-derived …: SPDKQMAVLPRRERNRQAAAANPENSRGKGRRGQRGKNRGCVLTAIHLNVTDLGLGYETKEELIFRYCSGSCDAAETTYDKILKNLSRNRRLVSDKVGQACCRPIAFDDDLSFLDDNLVYHILRKHSAKRCGCI
- permeation through the FUS-opened BBB into the parenchyma [2]: does not
- fluorescence post-mortem in brain, kidneys, liver, bladder or testes ([2]; in vivo): no fluorescence was found
- time within which the protein may be broken down in circulation ([2]; in vivo): ≤ 45 s

B2: Neurturin: neurotrophic factor neurturin (NTN) (protein, UniProt Q99748 96-197, looked up)
Neurturin: ARLGARPCGLRELEVRVSELGLGYASDETVLFRYCAGACEAAARVYDLGLRRLRQRRRLRRERVRAQPCCRPTAYEDEVSFLDAHSRYHTVHELSARECACV
- permeation through the FUS-opened BBB into the parenchyma [2]: permeating through the opened barrier and into the parenchyma
